Format: physicochemical
Description: The directive essentially states that if a material is classified as a surfactant in must pass certain biodegradation protocols. A surfactant was generally defined as a material capable of: 1) reducing the surface tension of water to ≤45 dynes/cm (or ≤45 mN/m) at a concentration of 0.5 wt % of the material in water; 2) forming spreading or adsorption monolayers at an air/water interface; 3) forming emulsions, microemulsions and/or micelles; and 4) adsorption at a water/solid interface. Surface tension of an aqueous solution, fluid, or mixture can readily be determined by various methods understood in the art. Generally, for stable solutions or mixtures, an equilibrium method such as the Wilhelmy plate method or Du Noüy ring method can be utilized. Alternately, for more dynamic systems, a pendant drop method can be utilized. This technique results in a fresh surface for each measurement. This method is also useful to reduce the potential for insoluble hydrophobic impurities or oils which could impact the surface tension measurement resulting in artificially low surface tension values. An example of such a surfactant assessment/classification is illustrated in the flow diagram of FIG. 3. Referring to the protocol illustrated in FIG. 3, the initial assessment is whether or not a 0.5 wt % mixture of the material being tested is soluble in water. Mixtures were prepared by adding 0.5% of the material to distilled water at 20° C. and mixing with a magnetic stir bar for one hour. If the material is soluble in water, as indicated, for example, by the formation of a clear or slightly hazy mixture, then surface tension (σ) is determined. If σ is >45 mN/m, the material is not classified as a surfactant. If σ is ≤45 mN/m, and micelles are not present, the material is not classified as a surfactant. Conversely, if micelles are present, the material is classified as a surfactant. If the material is not soluble in water, and no emulsion is present (e.g. solid particles or gels are present instead), then the material is not classified as a surfactant. If an emulsion is present (e.g. droplets are present) and the emulsion in stable, then σ is determined. If σ is >45 mN/m, the material is not classified as a surfactant. Conversely, if σ is ≤45 mN/m, the material is classified as a surfactant. If the material is not soluble in water, and an emulsion is present (e.g. droplets are present) and the emulsion is not stable, the emulsion is then centrifuged. The (clear) main phase (or supernatant) of the emulsion is further studied and the a is determined. If σ is >45 mN/m, the material is not classified as a surfactant. Conversely, if σ is ≤45 mN/m, and micelles are not present, the material is not classified as a surfactant. […]

SMILES: CN(CC(O)COCCC[Si](C)(O[Si](C)(C)C)O[Si](C)(C)C)C[C@H](O)[C@@H](O)[C@H](O)[C@H](O)CO (stereo partly shown) [Example 11, BisH-AGE-NMG]
- solubility in water: generally insoluble
- stability of the mixture in water: stable
- appearance / behaviour of the mixture in water (0.5 wt % mixture in water): formed a hazy mixture
- classification as surfactant / non-surfactant according to the protocol/flow diagram (0.5 wt % of the material in distilled water at 20° C., mixed one hour): surfactant
